Source: patent US5670667A, “Chroman-2-ylmethylamino derivatives” (American Home Products Corporation, priority 1996, dated 1997)

Experiments:
α1 = α1 IC50; assay type: binding
5-HT1a = target: T1, 5-HT1a (Homo sapiens, UniProt P08908); test: biochemical; assay type: binding
T1 sequence (P08908 1-422): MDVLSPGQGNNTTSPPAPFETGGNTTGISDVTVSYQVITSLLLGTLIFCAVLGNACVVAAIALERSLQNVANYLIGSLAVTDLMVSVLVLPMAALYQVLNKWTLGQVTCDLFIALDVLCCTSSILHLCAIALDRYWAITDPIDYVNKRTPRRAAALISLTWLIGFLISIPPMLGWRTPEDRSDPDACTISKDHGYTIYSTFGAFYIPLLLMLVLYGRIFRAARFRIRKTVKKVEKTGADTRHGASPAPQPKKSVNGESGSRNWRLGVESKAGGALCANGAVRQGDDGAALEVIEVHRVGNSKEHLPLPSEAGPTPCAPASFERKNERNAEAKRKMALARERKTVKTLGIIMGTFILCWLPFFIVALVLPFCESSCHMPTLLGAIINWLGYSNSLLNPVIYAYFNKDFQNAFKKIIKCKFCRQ

SMILES | IC50 (α1) | IC50 (5-HT1a)
Oc1ccc2c(c1)OC(CNCCCCc1ccccc1)CC2 (centres unmarked) [Example 1m, 2-[(4-Phenyl-butylamino)-methyl]-chroman-7-ol] | 80 nM | 
c1ccc(CNCC2CCc3ccccc3O2)cc1 (centres unmarked) [reference compound] | 630 nM | 
Oc1ccc2c(c1)OC(CNCc1ccccc1)CC2 (centres unmarked) [Example 1f, 2-(Benzylamino-methyl)-chroman-7-ol] | 1140 nM | 104 nM
Fc1ccc(CNCC2CCc3ccccc3O2)cc1 (centres unmarked) [reference compound] | 1280 nM | 
